In one assay the target is T1, Squalene Synthase (Rattus norvegicus, UniProt Q02769).
T1 construct: The livers from these rats were homogenized in 5 volumes (mL/g) of ice cold 50 mM HEPES; from tissue; host or cells: liver microsomes of male Charles River CD rats fed 0.1% lovastatin
T1 sequence (Q02769 1-416): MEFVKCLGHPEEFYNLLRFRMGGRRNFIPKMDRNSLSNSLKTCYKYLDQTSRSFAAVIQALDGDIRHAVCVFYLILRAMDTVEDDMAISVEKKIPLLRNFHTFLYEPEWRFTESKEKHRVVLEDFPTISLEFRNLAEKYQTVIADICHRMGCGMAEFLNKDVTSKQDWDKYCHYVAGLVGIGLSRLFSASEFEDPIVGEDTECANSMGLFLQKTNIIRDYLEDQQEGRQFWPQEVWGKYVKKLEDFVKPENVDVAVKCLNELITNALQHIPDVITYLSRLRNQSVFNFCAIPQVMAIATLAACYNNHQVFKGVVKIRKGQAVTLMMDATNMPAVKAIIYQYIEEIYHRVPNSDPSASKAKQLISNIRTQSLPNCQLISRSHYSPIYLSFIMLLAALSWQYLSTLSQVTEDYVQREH
As to the kind of experiment: Squalene synthase assay (standard in vitro protocol, rat liver microsomes, [4-14C]farnesyl pyrophosphate). The class given is biochemical. The note with it: 30° C., 20 minutes. Here is the method: The intrinsic squalene synthase inhibitory activity of representative compounds of this invention was measured by the standard in vitro protocol described below:
Preparation of Rat Liver Microsomes
Male, CHARLES RIVER CD® rats (120 to 150 g) were fed a diet containing 0.1% lovastatin for 4 days. The livers from these rats were homogenized in 5 volumes (mL/g) of ice cold 50 mM HEPES (4-(2-hydroxyethyl)-1-piperazine-ethanesulfonic acid), 5 mM EDTA(ethylenediaminetetraacetic acid) pH 7.5 with a Potter-Elvehjem type tissue grinder. The homogenate was centrifuged twice at 20,000× g for 15 min. at 4° C., discarding the pellet each time. The supernatant was then centrifuged at 100,000× g for 1 hr at 4° C. The resulting microsomal pellet was resuspended in a volume of the above homogenizing buffer equal to one-fifth the volume of the original homogenate. This microsomal preparation has a protein concentration of about 7 mg/mL. The microsomal suspensions were stored in aliquots at -70° C. Squalene synthase activity in these aliquots is stable for a least several months.
Partial Purification of Prenyl Transferase
Prenyl transferase was purified to use in the enzymatic synthesis of radiolabelled farnesyl pyrophosphate. […]
For orientation: Liver microsomes are a subcellular fraction often used to study metabolism.

A further assay relates to Candida albicans MY1055. In words: Minimum fungicidal concentration, Candida albicans. The class given is cell-based. The note with it: 35° C. Here is the method:
(§1) The compounds are particularly active towards filamentous fungi and yeasts including Candida albicans and Cryptococcus neoformans. The sensitivity of filamentous fungi and yeast was determined using inhibitor dilution assays in microtiter format. The compounds were dissolved in 10% DMSO at 256 μg/mL and serially diluted in (DIFCO) Yeast Nitrogen Base supplemented with 1% glucose (YNBD) by two-fold dilutions yielding final drug concentrations ranging from 128-0.06 μg/mL. The wells were filled with 150 μL of inoculated media. Exponential phase Candida and Cryptococcus cells were diluted in YNBD such that the inoculum was 1.5-7.5×10^3 cells/mL. Aspergillus spores were harvested from a well-sporulated Sabouraud Dextrose Agar (SDA) slant in 0.01% Tween 80 and diluted into media to give an inoculum of 1×10^3 spores/mL. The microtiter dishes were incubated at 35° C. for 24 to 48 hours. […] After recording the MIC of yeasts, plates were shaken on a (SARSTEDT) TPM2 shaker to resuspend the cells and a MIC-2000 inoculator (DYNATECH) was used to transfer a 1.5 μL sample from each well in the microplate to a spot in a single-well tray containing SDA. Inoculated trays were incubated at 35° C. and results were recorded at 24 h or 48 h (for Cryptococcus). The minimum fungicidal concentration (MFC) was defined as the lowest concentration of drug showing no growth or less than 4 colonies per spot. […]

Assay [1] has as its system Cryptococcus neoformans MY1051. In words: Minimum fungicidal concentration, Cryptococcus neoformans. The class given is cell-based. As to conditions: 35° C. Here is the method: as §1
Assay [2] relates to Aspergillus fumigatus MF4839. In words: Broth dilution antifungal assay (MIC), Aspergillus fumigatus. The class given is cell-based. As to conditions: 24 to 48 hours at 29° C., read-out: Minimum Inhibitory Concentration (MIC). On the procedure: as §1
A general note: Dilution methods test growth across graded concentrations, often in twofold steps.

Assay [3] has as its target T2, Farnesyl-protein transferase (Ftase) from bovine brain (Bos taurus, UniProt P29702+P49355).
T2 construct: Farnesyl-protein transferase (Ftase) from bovine brain was chromatographed on DEAE--Sephacel; from tissue; host or cells: bovine brain, partially purified by chromatography
As to the kind of experiment: Farnesyl-transferase assay (inhibition of Ras farnesylation in vitro). It is filed as biochemical. The note with it: Ras-CVLS 3.5 μM, 0.25 μM [3H]FPP, partially purified bovine brain enzyme. On the procedure:
FARNESYL-TRANSFERASE ASSAY
Farnesyl-protein transferase (Ftase) from bovine brain was chromatographed on DEAE--Sephacel (Pharmacia, 0-0.8M NaCl gradient elution), N-octyl agarose (Sigma, 0-0.6M NaCl gradient elution), and a MONO Q HPLC column (Pharmacia, 0-0.3M NaCl gradient). Ras-CVLS at 3.5 μM, 0.25 μM [^3 H]FPP, and the indicated compounds were incubated with this partially purified enzyme preparation. The Ftase data is a measurement of the ability of the test compound to inhibit Ras farnesylation in vitro.

For the next assay, the system named is Ras farnesylation. As to conditions: Hancock et al., Casey et al., Schafer et al.; cited from earlier work.

Structures are written as SMILES. pIC50: −log10 of the molar value. ≈ marks a conversion by molar mass, not a printed value.

As for `C=C(CC[C@]12O[C@H](C)[C@@](O)(C(=O)O)[C@](C(=O)O)(O1)[C@H](OC(=O)/C=C/[C@@H](C)C[C@@H](C)CC)[C@H]2O)[C@@H](OC(C)=O)[C@H](C)Cc1ccccc1` [Compound 128, IIA-3-methyl], the results for the pIC50 (against Squalene Synthase; in assay [3]) were 8.46 and 5.48, respectively. In addition, the MFC stood at 128 µg/mL (≈ 194 µM) against Candida albicans MY1055 and 0.5 µg/mL (≈ 0.757 µM) in assay [1]. The MIC in assay [2] came to 16 µg/mL (≈ 24.2 µM).
For the compound `CC[C@H](C)C(=O)O[C@H]1CCC=C2C=C[C@H](C)[C@H](CC[C@@H]3C[C@@H](O)CC(=O)O3)[C@H]21` [compactin], the “Inhibition of Ras farnesylation in vivo” value in the assay on Ras farnesylation was “Inhibition of Ras farnesylation in vivo has been demonstrated”.
Regarding `CC[C@H](C)C(=O)O[C@H]1C[C@@H](C)C=C2C=C[C@H](C)[C@H](CC[C@@H]3C[C@@H](O)CC(=O)O3)[C@H]21` [lovastatin], the “Inhibition of Ras farnesylation in vivo” value in the assay on Ras farnesylation is reported as “Inhibition of Ras farnesylation in vivo has been demonstrated”.

A word on the pIC50: it is the IC50 on a negative log10 scale, so that one unit is a factor of ten. A higher pIC50 goes with a small IC50. As a reminder, the MFC is the smallest concentration meeting the test's criterion for killing the fungus. Read a low MFC as greater fungicidal potency.

Values taken from patent US5369125A, “Cholesterol-lowering agents” (Merck & Co., Inc., priority 1993, dated 1994).
